Measurements reported in paper PMC6606794, “Crosstalk of Cellulose and Mannan Perception Pathways Leads to Inhibition of Cellulase Production in Several Filamentous Fungi” (mBio, 2019).

Experiments:
[1] = target: T1, CDT-2 (Neurospora crassa, UniProt Q7SD12); experiment: uptake by yeast expressing CDT-2, residual sugar by HPAEC-PAD; type: cell-based; settings: 100 µM sugar, 30 min
T1 construct: pRS316-CDT2 expressed in Saccharomyces cerevisiae D452-2
T1 sequence (Q7SD12 1-525): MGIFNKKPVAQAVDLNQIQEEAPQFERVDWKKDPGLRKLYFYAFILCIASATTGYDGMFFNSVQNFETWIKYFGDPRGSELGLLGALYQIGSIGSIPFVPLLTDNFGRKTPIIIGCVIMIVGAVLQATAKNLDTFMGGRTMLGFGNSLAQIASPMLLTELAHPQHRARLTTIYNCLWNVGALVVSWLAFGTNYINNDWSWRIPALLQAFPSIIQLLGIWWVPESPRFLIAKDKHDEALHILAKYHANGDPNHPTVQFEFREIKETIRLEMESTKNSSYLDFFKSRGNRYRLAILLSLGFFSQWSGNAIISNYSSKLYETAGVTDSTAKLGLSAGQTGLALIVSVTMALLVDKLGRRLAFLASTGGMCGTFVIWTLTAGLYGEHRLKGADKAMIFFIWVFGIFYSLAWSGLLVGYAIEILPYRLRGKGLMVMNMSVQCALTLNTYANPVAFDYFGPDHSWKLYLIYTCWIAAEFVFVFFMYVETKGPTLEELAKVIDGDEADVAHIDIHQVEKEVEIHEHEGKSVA

[2] = target: T2, CDT-1 (Neurospora crassa, UniProt Q7SCU1); experiment: uptake by yeast expressing CDT-1, residual sugar by HPAEC-PAD; type: cell-based; settings: 100 µM sugar, 30 min, over empty-vector background
T2 construct: pRS316-CDT1 expressed in Saccharomyces cerevisiae D452-2
T2 sequence (Q7SCU1 1-579): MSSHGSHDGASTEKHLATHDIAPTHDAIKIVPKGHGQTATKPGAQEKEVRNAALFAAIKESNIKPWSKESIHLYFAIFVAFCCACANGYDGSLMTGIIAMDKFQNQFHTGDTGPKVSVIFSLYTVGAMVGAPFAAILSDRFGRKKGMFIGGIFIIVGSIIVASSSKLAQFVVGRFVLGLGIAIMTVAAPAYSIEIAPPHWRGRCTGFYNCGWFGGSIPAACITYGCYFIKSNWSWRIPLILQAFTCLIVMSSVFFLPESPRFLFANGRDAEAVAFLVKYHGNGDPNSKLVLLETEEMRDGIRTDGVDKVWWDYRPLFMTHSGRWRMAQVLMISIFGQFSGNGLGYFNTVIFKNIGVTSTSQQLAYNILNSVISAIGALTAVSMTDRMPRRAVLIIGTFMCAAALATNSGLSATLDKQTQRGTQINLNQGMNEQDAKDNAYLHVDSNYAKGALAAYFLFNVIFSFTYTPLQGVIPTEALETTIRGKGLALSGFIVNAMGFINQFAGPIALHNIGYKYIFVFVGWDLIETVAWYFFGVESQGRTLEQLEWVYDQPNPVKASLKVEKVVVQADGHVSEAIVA

[3] = target: T3, GH2-1 (Neurospora crassa, UniProt Q7SFE1); experiment: 4-nitrophenol release, absorbance at […] nm; type: biochemical; settings: 50 mM KP buffer pH 5.5, 37 °C, 1 h, 0.1 µg enzyme, 80 µg substrate
T3 construct: gh2-1 cDNA in pGAPZ-B (EcoRI/XbaI), His-tagged, expressed in Pichia pastoris X-33, purified by IMAC from cell lysate; no predicted signal peptide
T3 sequence (Q7SFE1 1-854): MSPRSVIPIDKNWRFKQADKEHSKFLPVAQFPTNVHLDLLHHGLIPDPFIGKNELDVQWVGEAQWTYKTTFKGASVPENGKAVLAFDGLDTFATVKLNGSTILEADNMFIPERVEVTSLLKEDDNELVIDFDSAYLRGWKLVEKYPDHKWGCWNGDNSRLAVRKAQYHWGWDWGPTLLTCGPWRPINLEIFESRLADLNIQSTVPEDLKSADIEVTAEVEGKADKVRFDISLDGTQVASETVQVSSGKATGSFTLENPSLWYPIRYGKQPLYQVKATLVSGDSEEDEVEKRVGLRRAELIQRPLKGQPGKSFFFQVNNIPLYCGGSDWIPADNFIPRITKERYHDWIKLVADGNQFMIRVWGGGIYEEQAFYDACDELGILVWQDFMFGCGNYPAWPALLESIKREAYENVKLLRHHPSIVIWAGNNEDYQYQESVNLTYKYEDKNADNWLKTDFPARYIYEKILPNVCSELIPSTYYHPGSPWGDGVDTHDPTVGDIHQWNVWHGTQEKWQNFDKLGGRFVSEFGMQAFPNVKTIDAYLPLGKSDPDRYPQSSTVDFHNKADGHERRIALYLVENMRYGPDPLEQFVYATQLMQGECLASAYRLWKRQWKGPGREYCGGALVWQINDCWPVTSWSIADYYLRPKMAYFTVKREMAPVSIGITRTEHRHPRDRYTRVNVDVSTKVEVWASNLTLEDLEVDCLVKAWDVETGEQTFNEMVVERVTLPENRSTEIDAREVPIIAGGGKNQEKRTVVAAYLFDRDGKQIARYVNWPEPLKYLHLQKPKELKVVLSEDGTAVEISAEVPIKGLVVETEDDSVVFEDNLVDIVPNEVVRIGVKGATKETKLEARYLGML

% remaining in supernatant ([2]; competes with cellobiose) | % remaining in supernatant ([2]; competes with mannobiose) | SMILES | uptake by yeast expressing CDT-2, residual sugar by HPAEC-PAD [1] | 4-nitrophenol release, absorbance at 405 nm [3]
~ 18% | – | OC[C@H]1O[C@@H](O[C@H]2[C@H](O)[C@H](O)C(O)O[C@@H]2CO)[C@@H](O)[C@@H](O)[C@@H]1O (some centres unmarked) [MB, mannobiose] | not only cellobiose was imported by both S. cerevisiae strains, but also mannobiose | –
– | ~ 40% | OC[C@H]1O[C@@H](O[C@H]2[C@H](O)[C@@H](O)C(O)O[C@@H]2CO)[C@H](O)[C@@H](O)[C@@H]1O (some centres unmarked) [CB, cellobiose] | not only cellobiose was imported by both S. cerevisiae strains, but also mannobiose | –
– | – | O=[N+]([O-])c1ccc(O[C@@H]2O[C@H](CO)[C@@H](O)[C@H](O)[C@@H]2O)cc1 [ρNP-β-Man, 4-nitrophenyl-β-D-mannopyranoside] | – | The purified enzyme showed strong activity on ρNP-β-D-mannopyranoside with high specificity
